Like-named read-outs stand apart in the source and are kept apart here.
Key:
H-Ras processing = experiment: Ras processing assay in H-RasF cells (NIH 3T3 transformed with oncogenic H-Ras-CVLS), immunoblot; type: cell-based; settings: for IC50: whole cells
Protocol: (§1) H-RasF cells (45) were seeded on day 0 in 100 mm Dishes (costar) in Dulbecco's modified Eagles medium (GIBCO) and allowed to grow to 40-60% confluency. […] On day 3, cells were washed one time with ice cold PBS and were collected and lysed by incubation for 30-60 min on ice in lysis buffer (41). Lysates were cleared (14,000 rpm, 4° C., 15 min) and supernatants collected. Equal amounts of lysate were separated on a 12.5% SDS-PAGE, transfered to nitrocellulose, and a western blot performed using a anti-Ras antibody (Y13-238, ATCC) or anti-Rap1A antibody (Santa Cruz Biotechnology, Santa Cruz, Calif.). Antibody reactions were visualized using peroxidase-conjugated goat anti-rat IgG for Y13-238 and peroxidase-conjugated goat anti-rabbit IgG for Rap1A and an enhanced chemiluminescence detection system (ECL; Amersham Corp.)
(§2) H-Ras cells (45) and K-Ras4B Cells (32) were kind gifts from Dr. Channing Der and Dr. Adrienne Cox (University of North Carolina, Chapel Hill). Means of obtaining these cell lines will be easily recognized by the skilled practitioner. Cells were seeded on day 0 in 100 mm dishes in Dulbecco's modified Eagles medium supplemented with 10% calf serum and 1% penicillin-streptomycin. […] On day 3, cells were washed and lysed in lysis buffer containing 50 mM HEPES, pH 7.5, 10 mM NaCl, 1% TX-100, 10% glycerol, 5 mM MgCl2, 1 mM EGTA, 25 μg/ml leupeptin, 2 mM PMSF, 2 mM Na3 VO4, 1 mg/ml soybean trypsin inhibitor, 10 μg/ml aprotinin, 6.4 mg/ml Sigma-104® phosphatase substrate. Lysates were cleared (14,000 rpm, 4° C., 15 min) and equal amounts of protein were separated on a 12.5% SDS-PAGE, transferred to nitrocellulose, and immunoblotted using an anti-Ras antibody (Y13-259, ATCC) or an anti-RapIA antibody (SC-65, Santa Cruz Biotechnology, Santa Cruz, Calif.). Antibody reactions were visualized using either peroxidase-conjugated goat anti-rat 1 gG (for Y13-259), or peroxidase-conjugated goat anti-rabbit 1 gG (for Rap1A) and an enhanced chemiluminescence detection (ECL, Amersham Corp.), as described previously (41).

[1] = system: oncogenic H-Ras activation of MAPK; experiment: Oncogenic H-Ras activation of MAP kinase, immunoblot; type: cell-based; settings: H-RasF cells
Description: Equal amounts of protein were separated on a 15% SDS-PAGE, transferred to nitrocellulose, and immunoblotted using an anti-MAP kinase antibody (erk2, monoclonal, UB1, Lake Placid, N.Y.). Antibody reactions were visualized using peroxidase-conjugated donkey anti-mouse IgG (Jackson ImmunoResearch Laboratories Inc., West Grove, Pa.) and an enhanced chemiluminescence detection system (ECL, Amersham Corp.)

[2] = system: oncogenic Raf activation of MAPK; settings: 5 μM, FIG. 5B
Ras/Raf complexes = settings: 5 μM, H-RasF cells
Protocol: Cells were seeded on day 0 in 100 mm dishes in 10 ml Dulbecco's Modified Eagles Medium (GIBCO) supplemented with 10% calf serum (Hyclone) and 1% pen/strep (GIBCO). […] On day 3, cells were collected by centrifugation in ice cold PBS. Cell pellets were then resuspended in ice cold hypotonic buffer (10 mM Tris, pH 7.5, 5 mM MgCl2, 1 mM DTT, 1 mM PMSF) and cells were sonicated to break up cell pellet to promote separation of cytosol and membrane. The cell suspension was then centrifuged at 2,000 rpm for 10 min to clear debris after which the supernatant was loaded in ultrocentrifuge tubes and spun for 30 min at 100,000×g to SW Ti55 Rotor to separate membrane and cytosol fractions. The cytosol and membrane fractions were lysed on ice for 60 min in buffer containing 30 mM HEPES, pH 7.5, 1% TX-100, 10% glycerol, 10 mM NaCl, 5 mM MgCl2, 2 mM Na3 VO4, 25 mM NaF, 1 mM EGTA, 10 μM soybean trypsin inhibitor, 25 μg/ml leupeptin, 10 μg/ml aprotinin, 2 mM PMSF). The lysates were clarified by centrifugation. Equal amounts of cytosol and membrane fractions were immunoprecipitated using 50 μl of a 25% Protein-A Sepharose Cl-4B suspension (Sigma) with 1 μf/ml anti-c-Raf-1 (SC133, Santa Cruz Biotechnology, Santa Cruz, Calif.). The samples were tumbled at 4° C. for 60 min and then washed 5 times in 50 mM HEPES, pH 7.5, 100 mM NaCl, 5 mM MgCl2, 0.1% TX-100, 10% glycerol, 20 mM NaF. […]

RasGG processing = settings: 5 μM, FIG. 2B
Protocol: as §1

[3] = system: endogenous Ras processing; settings: 5 μM, pZIPneo and Raf cells
Protocol: as §1

Rap1A processing = Rap1A processing assay in NIH 3T3 cells overexpressing oncogenic H-Ras, immunoblot; type: cell-based; settings: for IC50: whole cells
Protocol: as §1, §2

GGTase I = biological target: T1, GGTase I (Homo sapiens, UniProt P53609); experiment: GGTase I activity assay: transfer of [3H]geranylgeranyl to recombinant H-Ras-CVLL, Daudi 60,000xg supernatant; type: biochemical; settings: Table 1; read-out: GGTase I IC50
T1 construct: FTase and GGTase I activities from 60,000×g supernatants of human Burkitt lymphoma (Daudi) cells; endogenous in cells; host or cells: human Burkitt lymphoma (Daudi) cells, 60,000xg supernatant (partially purified)
T1 sequence (P53609 whole entry): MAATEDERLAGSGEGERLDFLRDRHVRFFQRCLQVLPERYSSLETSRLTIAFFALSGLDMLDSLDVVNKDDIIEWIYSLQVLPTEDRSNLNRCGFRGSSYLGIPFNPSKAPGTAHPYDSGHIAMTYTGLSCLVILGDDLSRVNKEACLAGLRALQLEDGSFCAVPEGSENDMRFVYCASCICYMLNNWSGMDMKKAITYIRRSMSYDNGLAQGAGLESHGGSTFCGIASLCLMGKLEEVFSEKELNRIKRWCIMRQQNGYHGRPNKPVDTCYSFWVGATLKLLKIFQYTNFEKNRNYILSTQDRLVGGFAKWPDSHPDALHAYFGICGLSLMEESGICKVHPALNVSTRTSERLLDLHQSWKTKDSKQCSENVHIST

## COC(=O)[C@H](CCSC)NC(=O)c1ccc(NC[C@@H](N)CS)cc1-c1ccccc1 [FTI-277, 4-N-[2(R)-Amino-3-mercaptopropyl]amino-2-phenylbenzoyl methionine methyl ester]
H-Ras processing; 5 μM, FIG. 2B
  processing of RasF: completely blocked
H-Ras processing; H-RasF cells
  concentration at which Ras processing was blocked: 1 µM
H-Ras processing; Table 5, read-out: In Vivo Processing IC50 H-Ras
  IC50: 0.1 µM
H-Ras processing; read-out: H-Ras processing IC50
  IC50: 0.1 µM
[1]
  lowest effective concentration, inhibition of oncogenic Ras activation of MAPK: 300 nM
[2]
  block of oncogenic Raf activation of MAPK: not blocked
Ras/Raf complexes
  Ras/Raf association in membrane and cytosolic fractions: accumulation of Ras/Raf complexes in the cytosolic but not membrane fractions
RasGG processing
  processing of RasGG: not affected
[3]
  processing of endogenous Ras: blocked
Rap1A processing; Table 5, read-out: In Vivo Processing IC50 Rap1A
  IC50: 50 µM
Rap1A processing; concentrations as high as 10 μM
  inhibition of processing of geranylgeranylated Rap1A: did not inhbit processing
Rap1A processing; read-out: Rap1A processing IC50
  IC50: 50 µM
GGTase I
  IC50: 1.6 µM

— US5965539A, “Inhibitors of prenyl transferases” (Univeristy of Pittsburgh, priority 1996, dated 1999)
